Data taken from ChEMBL document CHEMBL1152948, “Antimycobacterial activity of new 3,5-disubstituted 1,3,4-oxadiazol-2(3H)-one derivatives. Molecular modeling investigations” (2009).
Values after ≈ are worked out from the molar mass of the structure shown. Active and inactive are the calls of the source. The calls are words filed in the database; no cut-off is given here.

Assays:
[1] = system: Mycobacterium tuberculosis; assay: Antitubercular activity against Mycobacterium tuberculosis H37Rv by microdilution resazurin assay; format: functional
[2] = system: Mycobacterium tuberculosis; assay: Antitubercular activity against Mycobacterium tuberculosis H37Rv at 30 ug/disk by microdilution resazurin assay; format: functional, organism-based
[3] = system: Mycobacterium tuberculosis; assay: Antitubercular activity against Mycobacterium tuberculosis H37Rv at 5 ug/disk by microdilution resazurin assay; format: functional, organism-based

Molecule O=c1[nH]nc(-c2ccccc2)o1 has an MIC [1] of 32 µg/mL (≈ 197 µM).
Molecule CN(Cc1ccccc1)Cn1nc(-c2ccncc2)oc1=O has an MIC [1] of 8 µg/mL (≈ 27 µM).
O=c1oc(-c2ccccn2)nn1CN1CCCCC1 was tested, and the MIC [1] was 4 µg/mL (≈ 15.4 µM).
O=c1oc(-c2cnccn2)nn1CN1CCCCC1 gave an MIC [1] of over 64 µg/mL.
O=c1[nH]nc(-c2cccnc2)o1 showed an MIC [1] of 32 µg/mL (≈ 196 µM).
CN(Cc1ccc(Cl)cc1Cl)Cn1nc(-c2ccncc2)oc1=O was tested, and the MIC [1] was 8 µg/mL (≈ 21.9 µM).
CC1CCCN(Cn2nc(-c3ccccn3)oc2=O)C1 (configuration not stated) gave an MIC [1] of 4 µg/mL (≈ 14.6 µM).
Molecule CC1CCCCN1Cn1nc(-c2cccnc2)oc1=O (configuration not stated) has an MIC [1] of 32 µg/mL (≈ 117 µM).
Molecule CC1CCCN(Cn2nc(-c3ccccc3)oc2=O)C1 (configuration not stated) has an MIC [1] of 32 µg/mL (≈ 117 µM).
Molecule CN(Cc1ccc(Br)cc1)Cn1nc(-c2ccncc2)oc1=O has an MIC [1] of 4 µg/mL (≈ 10.7 µM).
With CN(Cc1ccccc1F)Cn1nc(-c2ccncc2)oc1=O the MIC [1] was 4 µg/mL (≈ 12.7 µM).
O=c1[nH]nc(-c2cnccn2)o1 showed an MIC [1] of over 64 µg/mL.
For CC1CCN(Cn2nc(-c3ccccn3)oc2=O)CC1, the MIC [1] was 4 µg/mL (≈ 14.6 µM).
In the case of CC1CCN(Cn2nc(-c3ccccc3)oc2=O)CC1, the MIC [1] is reported as 32 µg/mL (≈ 117 µM).
With CC1CCN(Cn2nc(-c3cnccn3)oc2=O)CC1 the MIC [1] was over 64 µg/mL.
In the case of CN(Cc1ccc(F)cc1)Cn1nc(-c2ccncc2)oc1=O, the MIC [1] is reported as 4 µg/mL (≈ 12.7 µM).
Work on Cc1ccc(CN(C)Cn2nc(-c3ccncc3)oc2=O)cc1 yielded an MIC [1] of 4 µg/mL (≈ 12.9 µM).
Molecule O=c1[nH]nc(-c2ccccn2)o1 has an MIC [1] of 4 µg/mL (≈ 24.5 µM).
CN(Cc1cccc(F)c1)Cn1nc(-c2ccncc2)oc1=O was tested, and the MIC [1] was 8 µg/mL (≈ 25.5 µM).
CC1CCCN(Cn2nc(-c3cccnc3)oc2=O)C1 (configuration not stated) gave an MIC [1] of 32 µg/mL (≈ 117 µM).
Molecule CC1CCCCN1Cn1nc(-c2ccccc2)oc1=O (configuration not stated) has an MIC [1] of 32 µg/mL (≈ 117 µM).
CN(Cc1cccc2ccccc12)Cn1nc(-c2ccncc2)oc1=O was tested, and the MIC [1] was 8 µg/mL (≈ 23.1 µM).
Work on O=c1oc(-c2ccccc2)nn1CN1CCCCC1 yielded an MIC [1] of 32 µg/mL (≈ 123 µM).
With CO[C@H]1/C=C/O[C@@]2(C)Oc3c(C)c(O)c4c(O)c(c(/C=N/N5CCN(C)CC5)c(O)c4c3C2=O)NC(=O)/C(C)=C\C=C\[C@H](C)[C@H](O)[C@@H](C)[C@@H](O)[C@@H](C)[C@H](OC(C)=O)[C@@H]1C [RIFAMPIN] the MIC [1] was 1 µg/mL (≈ 1.22 µM) and the Activity [2] was “Active”.
Molecule CC1CCCN(Cn2nc(-c3cnccn3)oc2=O)C1 (configuration not stated) has an MIC [1] of over 64 µg/mL.
CN(Cc1cccc(Cl)c1)Cn1nc(-c2ccncc2)oc1=O showed an MIC [1] of 8 µg/mL (≈ 24.2 µM).
Molecule CN(Cc1ccccc1Br)Cn1nc(-c2ccncc2)oc1=O has an MIC [1] of 8 µg/mL (≈ 21.3 µM).
O=c1oc(-c2cccnc2)nn1CN1CCCCC1 was tested, and the MIC [1] was 32 µg/mL (≈ 123 µM).
For CN(Cc1ccccc1Cl)Cn1nc(-c2ccncc2)oc1=O, the MIC [1] was 8 µg/mL (≈ 24.2 µM).
O=c1[nH]nc(-c2ccncc2)o1 [NEOVADRINE] showed an MIC [1] of 4 µg/mL (≈ 24.5 µM).
Molecule CC1CCCCN1Cn1nc(-c2ccccn2)oc1=O (configuration not stated) has an MIC [1] of 4 µg/mL (≈ 14.6 µM).
For CN(Cc1ccc(Cl)cc1)Cn1nc(-c2ccncc2)oc1=O, the MIC [1] was 8 µg/mL (≈ 24.2 µM).
NNC(=O)c1ccncc1 [ISONIAZID] was tested, and the MIC [1] was 0.5 µg/mL (≈ 3.65 µM) and the Activity [3] was “Active”.
For CN(Cc1cccc(Br)c1)Cn1nc(-c2ccncc2)oc1=O, the MIC [1] was 4 µg/mL (≈ 10.7 µM).
Work on CC1CCN(Cn2nc(-c3cccnc3)oc2=O)CC1 yielded an MIC [1] of over 64 µg/mL.
